Tested on: platelet aggregation induced by PAF
Experiment: PAF-induced platelet aggregation inhibition (method of Born, aggregometer, platelet rich plasma)
Assay type: cell-based
Settings: Oryctolagus cuniculus, Platelet, 2 min, in vitro, rabbit PRP 50-55×10^4 /μl, 37° C., PAF C16 final 20 nM added 2 minutes after compound; read-out: IC50 (concentration of the test compounds which inhibit 50% platelet aggregation)
Description: Mature male rabbits (NIBS-JW, RABITON Institute Inc., weighing 2.2-2.5 kg) were used. […] (The total volume of blood sample in each tube was adjusted to 8 ml.)
The blood sample in each tube was gently shaken and then centrifuged for 10 minutes at 200 g at 22° C. to give platelet rich plasma (PRP). The remaining blood was further centrifuged at 3,000 rpm (about 1,900 g) for 10 minutes at 22° C. to give platelet-poor plasma (PPP).
PRP was diluted with PPP to prepare a blood sample whose platelet number was 50-55×10^4 /μl. The sample was then subjected to a platelet aggregation test.
A volume of 230 μl of PRP, whose platelet number was adjusted to 50-55×10^4 /μl, was placed in a measuring cuvette and set in the aggregometer. PRP was warmed at 37° C. for 1 minute with stirring at 1,200 rpm, and then a solution of the test compound [dimethylsulfoxide solution (1μl) of the compound+saline (9μl)] was added thereto. Exactly 2 minutes later, 10 μl of platelet activating factor (PAF, C16) (final concentration: 20 nM) was added as a platelet aggregating agent, and the change in light transmission caused by platelet aggregation was recorded.
The light transmissions of PRP and PPP were taken as 0% and 100% aggregation, respectively, and the maximum light transmission after addition of an aggregating agent was made the maximum aggregation. The inhibition rate of the platelet aggregation was expressed as the percentage of the maximum aggregation by a test compound to that by a control (Vehicle added group).

In order of falling IC50:
1. CCCCCCCCCCCCCCCCSCC(CNS(=O)(=O)CCC[N+](C)(C)C)OC (stereo not drawn) [I a8, 1-hexadecylthio-2-methoxy-3-(3-trimethylammoniopropylsulfonylamino)propaneiodide]  82100 nM
2. CCCCCCCCCCCCCCCCSCC(CNS(=O)(=O)CCC[N+](C)(C)C)COC (stereo not drawn) [I k4, 1-hexadecylthio-2-methoxymethyl-3-(3-trimethylammoniopropylsulfonylamino)propane iodide]  80300 nM
3. CCCCCCCCCCCCCCCCOCC(CNS(=O)(=O)CCC[N+](C)(C)C)OC (stereo not drawn) [I a10, 1-hexadecyloxy-2-methoxy-3-(3-trimethylammoniopropylsulfonylamino)propane iodide]  79900 nM
4. CCCCCCCCCCCCCCCCCCNC(=O)OCC(CNS(=O)(=O)CCC[N+]1(C)CCOCC1)OC (stereo not drawn) [I a4]  64200 nM
5. CCCCCCCCCCCCCCCCCCNC(=O)OCC(CNS(=O)(=O)CCC[N+](C)(C)C)OC (stereo not drawn) [I a1, 2-methoxy-1-octadecylcarbamoyloxy-3-(3-trimethylammoniosulfonylamino)propane chloride]  48100 nM
6. CCCCCCCCCCCCCCCCCCNC(=O)OCC(CNS(=O)(=O)CCC[n+]1ccncc1)OC (stereo not drawn) [I a6]  45400 nM
7. CCCCCCCCCCCCCCCCSCC(CNS(=O)(=O)CCC[N+](C)(C)C)n1nnc(C)n1 (stereo not drawn) [I h1, 1-hexadecylthio-2-(5-methyl-2H-tetrazol-2-yl)-3-(3-trimethylammoniopropylsulfonylamino)propane iodide]  23200 nM
8. CCCCCCCCCCCCCCCCSCC(CNS(=O)(=O)CCC[N+](C)(C)C)NC(C)=O (stereo not drawn) [I g2, 2-acetamido-1-hexadecylthio-3-(3-trimethylammoniopropylsulfonylamino)propane iodide]  14300 nM
9. CCCCCCCCCCCCCCCCCCNC(=O)OCC(CNS(=O)(=O)CCCC[n+]1ccc2ccccc2c1)OC (stereo not drawn) [I a16]  13500 nM
10. CCCCCCCCCCCCCCCCCCNC(=O)OCC(CNS(=O)(=O)CC[n+]1ccsc1)OC (stereo not drawn) [I a12, 2-methoxy-1-octadecylcarbamoyloxy-3-(2-thiazolioethylsulfonylamino)propaneiodide]  5950 nM
11. CCCCCCCCCCCCCCCCCCNC(=O)OCC(CNS(=O)(=O)CCC[n+]1ccccc1)OC (stereo not drawn) [I a3]  5200 nM
12. CCCCCCCCCCCCCCCCSCC(CNS(=O)(=O)CCC[n+]1ccsc1)OC (stereo not drawn) [I a9, 1-hexadecylthio-2-methoxy-3-(3-thiazoliopropylsulfonylamino)propane iodide]  3640 nM
13. CCCCCCCCCCCCCCCCCCNC(=O)OCC(CNS(=O)(=O)CCC[n+]1cccc2ccccc21)NC(=O)OC(C)(C)C (stereo not drawn) [I e6, 2-tert-butoxycarbonylamino-1-octadecylcarbamoyloxy-3-(3-quinoliniopropylsulfonylamino)propane iodide]  3090 nM
14. CCCCCCCCCCCCCCCCOCC(CNS(=O)(=O)CCC[n+]1ccsc1)OC (stereo not drawn) [I a11, 1-hexadecyloxy-2-methoxy-3-(3-thiazoliopropylsulfonylamino)propane iodide]  2970 nM
15. CCCCCCCCCCCCCCCCSCC(CNS(=O)(=O)CCC[n+]1cccc2ccccc21)NC(=O)OC(C)(C)C (stereo not drawn) [I e8, 2-tert-butoxycarbonylamino-1-hexadecylthio-3-(3-quinoliniopropylsulfonylamino)propane iodide]  1970 nM
16. CCCCCCCCCCCCCCCCCCNC(=O)SCC(CNS(=O)(=O)CCC[n+]1ccsc1)OC (stereo not drawn) [I a26, 2-methoxy-1-octadecylcarbamoylthio-3-(3-thiazoliniopropylsulfonylamino)propane iodide]  1930 nM
17. CCCCCCCCCCCCCCCCCCNC(=O)OCC(CNS(=O)(=O)CCC[n+]1ccsc1)OC (stereo not drawn) [I a2, 2-methoxy-1-octadecylcarbamoyloxy-3-(3-thiazoliopropylsulfonylamino)propane iodide]  1890 nM
18. CCCCCCCCCCCCCCCCCCNC(=O)OCC(CNS(=O)(=O)CCC[n+]1cscc1C)OC (stereo not drawn) [I a5]  1890 nM
19. CCCCCCCCCCCCCCCCCCNC(=O)OCC(CNS(=O)(=O)CCC[n+]1cccc2ccccc21)NC(C)=O (stereo not drawn) [I g4, 2-acetamido-1-octadecylcarbamoyloxy-3-(3-quinoliniopropylsulfonylamino)propane iodide]  1830 nM
20. CCCCCCCCCCCCCCCCCCNC(=O)OCC(CNS(=O)(=O)CCCC[n+]1ccsc1)OC (stereo not drawn) [I a13, 2-methoxy-1-octadecylcarbamoyloxy-3-(4-thiazoliobutylsulfonylamino)propaneiodide]  1770 nM
21. CCCCCCCCCCCCCCCCCCNC(=O)OCC(CN(C(C)=O)S(=O)(=O)CCC[n+]1cccc2ccccc21)NC(C)=O (stereo not drawn) [I g6, 3-(N-acetyl-3-quinoliniopropylsulfonylamino)-2-acetamido-1-octadecylcarbamoyloxypropane iodide]  1320 nM
22. CCCCCCCCCCCCCCCCCCNC(=O)OCC(CNS(=O)(=O)CCCC[n+]1cccc2ccccc21)OC (stereo not drawn) [I a14]  1290 nM
23. CCCCCCCCCCCCCCCCCCNC(=O)OCC(CNS(=O)(=O)CCC[n+]1cccc2ccccc21)NC(=O)NC (stereo not drawn) [I f3, 1-octadecylcarbamoyloxy-2-(3-methylureido)-3-(3-quinoliniopropylsulfonylamino)propane iodide]  965 nM
24. CCCCCCCCCCCCCCCCSCC(CNS(=O)(=O)CCC[n+]1cccc2ccccc21)OC(=O)NC (stereo not drawn) [I c1, 1-hexadecylthio-2-methylcarbamoyloxy-3-(3-quinoliniopropylsulfonylamino)propane iodide]  920 nM
25. CCCCCCCCCCCCCCCCSCC(CNS(=O)(=O)CCC[n+]1cccc2ccccc21)NC(=O)NC (stereo not drawn) [I f4]  873 nM
26. CCCCCCCCCCCCCCCCSCC(CNS(=O)(=O)CCC[n+]1cccc2ccccc21)NC(=O)OC (stereo not drawn) [I e7, 1-hexadecylthio-2-methoxycarbonylamino-3-(3-quinoliniopropylsulfonylamino)propane iodide]  850 nM
27. CCCCCCCCCCCCCCCCCCNC(=O)OCC(CNS(=O)(=O)CCC[n+]1cccc2ccccc21)OC (stereo not drawn) [I a7]  650 nM
28. CCCCCCCCCCCCCCCCOCC(CNS(=O)(=O)CCC[n+]1cccc2ccccc21)COC (stereo not drawn) [I k3, 1-hexadecyloxy-2-methoxymethyl-3-(3-quinoliniopropylsulfonylamino)propane iodide]  600 nM
29. CCCCCCCCCCCCCCCCCCNC(=O)OCC(CNS(=O)(=O)CCC[n+]1cccc2ccccc21)NC(=O)OC (stereo not drawn) [I e5, 1-octadecylcarbamoyloxy-2-methoxycarbonylamino-3-(3-quinoliniopropylsulfonylamino)propane iodide]  533 nM
30. CCCCCCCCCCCCCCCCCCNC(=O)OCC(CNS(=O)(=O)CCC[n+]1cccc2ccccc21)COC (stereo not drawn) [I k5, 2-methoxymethyl-1-octadecylcarbamoyloxy-3-(3-quinoliniopropylsulfonylamino)propane iodide]  400 nM
31. CCCCCCCCCCCCCCCCCCNC(=O)OCC1(CNS(=O)(=O)CCC[n+]2cccc3ccccc32)CCCO1 (stereo not drawn) [I b2, 2-octadecylcarbamoyloxymethyl-2-(3-qunoliniopropylsulfonylaminomethyl)tetrahydrofuran iodido]  385 nM
32. CCCCCCCCCCCCCCCCCCNC(=O)SCC(CNS(=O)(=O)CCC[n+]1cccc2ccccc21)OC (stereo not drawn) [I a25, 2-methoxy-1-octadecylcarbamoylthio-3-(3-quinoliniopropylsulfonylamino)propane iodide]  360 nM
33. CCCCCCCCCCCCCCCCCCNC(=O)OCC(COC)CN(C(C)=O)S(=O)(=O)CCC[n+]1cccc2ccccc21 (stereo not drawn) [I k6, 3-(N-acetyl-3-quinoliniopropylsulfonylamino)-2-methoxymethyl-1-octadecylcarbamoyloxypropane iodide]  340 nM
34. CCCCCCCCCCCCCCCCCCNC(=O)OCC(CNS(=O)(=O)CCC[n+]1cccc2ccccc21)OC(=O)NC (stereo not drawn) [I c3, 2-methylcarbamoyloxy-1-octadecylcarbamoyloxy-3(3-quinoliniopropylsulfonylamino)propane iodide]  330 nM
35. CCCCC[C@H](O)/C=C/[C@H]1[C@H](O)CC(=O)[C@@H]1CCCCCCC(=O)O [PGE1, reference compound]  259 nM
36. CCCCCCCCCCCCCCCCCCNC(=O)OCC(CNS(=O)(=O)CCC[n+]1cccc2ccccc21)Oc1ccon1 (stereo not drawn) [I j3, 2-(3-isoxazolyloxy)-1-octadecylcarbamoyloxy-3-(3-quinoliniopropylsulfonylamino)propane iodide]  250 nM

Same assay, conditions: in vitro, rabbit PRP 50-55×10^4 /μl, 37° C., PAF C16 final 20 nM added 2 minutes after compound; read-out: IC50 (concentration of the test compounds which inhibit 50% platelet aggregation)

In order of falling IC50:
1. CCCCCCCCCCCCCCCCCCNC(=O)OCC(CNS(=O)(=O)CCCC[n+]1ccc2ccccc2c1)OC (stereo not drawn) [I a20]  16000 nM
2. 2-methoxy-1-octadecylcarbamoylthio-3-(4-quinoliniopropylsulfonyamino)propane chloride [I a27]  740 nM

Tested on: platelet aggregation induced by PAF
Experiment: not given
Settings: known property of the reference compound; cited from earlier work

For `CCCCC[C@H](O)/C=C/[C@H]1[C@H](O)CC(=O)[C@@H]1CCCCCCC(=O)O` [PGE1, reference compound], the “inhibition of PAF-induced platelet aggregation (known)” value is listed as “potently inhibit the PAF-induced platelet aggregation”.

Reference: patent US5138067A, “Lipid derivatives” (Shionogi & Co. Ltd., priority 1991, dated 1992)
